Data from article PMC7238188, “Recombinant Peptide Production Platform Coupled with Site-Specific Albumin Conjugation Enables a Convenient Production of Long-Acting Therapeutic Peptide” (Pharmaceutics, 2020).

How the values were obtained:
[1] = target: human GLP-1 receptor (GLP-1R) overexpressed on HEK-293 cells (human) (UniProt P43220)
[2] = K34R mutant; cited from earlier work
C57BL/6J mice = test: In vivo intraperitoneal glucose tolerance test (IPGTT); conditions: C57BL/6J male mice, 100 nmol/kg subcutaneous 1 h before glucose 1.5 g/kg i.p., 0-120 min, n = 6
Procedure: We performed in vivo intraperitoneal glucose tolerance tests (IPGTTs) on seven-week-old male C57BL/6J mice, which we purchased from DBL. The mice were randomly divided into five groups (n = 6). The IPGTTs were performed after glucose (1.5 g/kg dose) had been intraperitoneally administered to C57BL/6J male mice that had been fasted for 3 h. We obtained blood samples from the tail of each mouse at the predetermined time using an Accu-Check Guide (Roche Diabetes Care, Indianapolis, IN, USA).

Sequence of human GLP-1 receptor (GLP-1R) overexpressed on HEK-293 cells (human) (P43220 24-463): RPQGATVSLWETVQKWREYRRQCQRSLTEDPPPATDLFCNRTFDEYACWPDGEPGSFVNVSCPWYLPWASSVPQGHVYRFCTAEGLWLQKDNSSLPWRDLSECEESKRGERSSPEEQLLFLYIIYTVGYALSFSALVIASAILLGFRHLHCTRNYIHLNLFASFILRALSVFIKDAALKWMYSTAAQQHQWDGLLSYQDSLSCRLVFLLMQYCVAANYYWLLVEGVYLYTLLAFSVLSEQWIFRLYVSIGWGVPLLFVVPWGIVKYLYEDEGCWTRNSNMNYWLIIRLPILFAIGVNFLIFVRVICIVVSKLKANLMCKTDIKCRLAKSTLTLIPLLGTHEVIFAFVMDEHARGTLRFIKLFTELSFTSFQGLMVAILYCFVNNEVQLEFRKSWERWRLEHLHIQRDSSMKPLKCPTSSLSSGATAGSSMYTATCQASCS

| EC50 of cAMP production in HEK-293 cells overexpressing GLP-1R [1] [nM] | Compound | biological activity compared with wild-type GLP-1 [2] | blood glucose profile / blood glucose levels in IPGTT (C57BL/6J mice) |
| --- | --- | --- | --- |
| 700 | GLP1_16HSA (GLP-1 variant conjugated to human serum albumin at position 16) (from UniProt P02768 25-609) |  |  |
|  | CC[C@H](C)[C@H](NC(=O)[C@H](Cc1ccccc1)NC(=O)[C@H](CCC(=O)O)NC(=O)[C@H](CCCCN)NC(=O)[C@H](C)NC(=O)[C@H](C)NC(=O)[C@H](CCC(N)=O)NC(=O)CNC(=O)[C@H](CCC(=O)O)NC(=O)[C@H](CC(C)C)NC(=O)[C@H](Cc1ccc(O)cc1)NC(=O)[C@H](CO)NC(=O)[C@H](CO)NC(=O)[C@@H](NC(=O)[C@H](CC(=O)O)NC(=O)[C@H](CO)NC(=O)[C@@H](NC(=O)[C@H](Cc1ccccc1)NC(=O)[C@@H](NC(=O)CNC(=O)[C@H](CCC(=O)O)NC(=O)[C@H](C)NC(=O)[C@@H](N)Cc1c[nH]cn1)[C@@H](C)O)[C@@H](C)O)C(C)C)C(=O)N[C@@H](C)C(=O)N[C@@H](Cc1c[nH]c2ccccc12)C(=O)N[C@@H](CC(C)C)C(=O)N[C@H](C(=O)N[C@@H](CCCNC(=N)N)C(=O)NCC(=O)N[C@@H](CCCNC(=N)N)C(=O)NCC(=O)O)C(C)C [GLP1_C] | comparable biological activity to that of wild-type GLP-1 | very similar to that of the negative control group |
